# From patent US8946280B2, “Plant growth regulating compounds” (Syngenta Participations AG, priority 2010, dated 2015)
# Test system: Orobanche cumana Wallr. seeds (race F; seed lots IN146 and IN153)
# Experiment: Germination of preconditioned Orobanche cumana seeds on glass fiber filter paper in petri dishes
# Format: in vivo
# Settings: mean, N = 5 × 100 seeds, re-transformed data; for Germination (%): seed lot IN146 raceF, examined 10 days later
# Experimental: The effect of compounds of formula (I) on germination of Orobanche cumana Wallr. seeds was evaluated on glass fiber filter paper (GFFP) in petri dishes. Seeds were preconditioned at moisture and suitable temperature to become responsive to the specific chemical germination stimulants.
# Test compounds were dissolved in DMSO (10 000 mg 1^−1) and stored at room temperature in a desiccators with desiccants. The stock solutions were dissolved with deionised water to the appropriate final test concentration.
# Seeds of O. cumana race ‘F’ were collected from sunflower fields in Manzanilla (Seville, Spain) in 2006 (seed lot IN146) and 2008 (seed lot IN153) and stored at room temperature. To separate seeds from heavy organic debris, a modified sucrose floatation technique as described by Hartman & Tanimonure (Plant Disease (1991), 75, p. 494) was applied. Seeds were filled into a separation funnel and stirred in water. When seeds floated to the surface, the water fraction containing heavy debris was discarded. Seeds were re-suspended in 2.5M sucrose solution (specific gravity of 1.20) and heavy debris was allowed to settle down for 60 min. After removing debris, seeds were disinfected in 1% sodium hypochlorite solution and 0.025% (v/v) Tween 20 for 2 min. The seeds were decanted onto two layers of cheesecloth, rinsed with sterile deionised water and re-suspended in sterile deionised water. Two ml of the seed suspension containing approximately 150-400 seeds were spread evenly on two layers of sterile glass fiber filter paper disc ([…]) in Petri dishes (Ø9 cm). After wetting the discs with 3 ml sterile deionised water, petri dishes were sealed with parafilm. Seeds were incubated for 10 days at 20° C. in the dark for seed conditioning. The upper disc with conditioned seeds was briefly dried, transferred to a petri dish lined with a dry GFFP disc, and wetted with 6 ml of the appropriate test solution. The compounds of formula (I) were tested at concentrations of 0.001, 0.01, and 0.1 mg 1^−1. The strigolactone analogue GR24 (commercially available as a mixture of isomers) was included as positive control and 0.001% DMSO as negative control. All treatments were tested in five replicates. Seeds were re-incubated at 20° C. in the dark and examined for germination 10 days later. The radicles of germinated seeds were stained for 5 min with blue ink (MIGROS, Switzerland) in 5% acetic acid according to Long et al. (Seed Science Research (2008), 18, p. 125). After staining, seeds were scanned using a flatbed scanner with an optical resolution of 1200 dpi (PULSTEK, OpticPro ST28) or photographed using a camera stand mounted with a digital SLR camera (Canon EOS 5D). Germination of 100 seeds per replicate was evaluated on digital images. Seeds were considered germinated when the radicle protruded from the seed coat. SAS statistical software package version 9.1 was used for analysis of variance (GLM procedure) and multiple comparisons of treatment means (Sidak t-test) based on arcsine transformed percentage germination data.
# [1] = 0.001 mg l^−1, lot IN146, raceF, Table 4
# [2] = 0.01 mg l^−1, lot IN146, raceF, Table 4
# [3] = 0.1 mg l^−1, lot IN146, raceF, Table 4
# [4] = Table 5, seed lot IN146, race F, 0.001 mg l^−1
# [5] = Table 5, seed lot IN146, race F, 0.01 mg l^−1
# [6] = Table 5, seed lot IN146, race F, 0.1 mg l^−1
# [7] = Table 8, seed lot IN153, race F, 0.001 mg l^−1
# [8] = Table 8, seed lot IN153, race F, 0.01 mg l^−1
# [9] = Table 8, seed lot IN153, race F, 0.1 mg l^−1
# [10] = Table 7, seed lot IN153, race F, 0.001 mg l^−1
# [11] = Table 7, seed lot IN153, race F, 0.01 mg l^−1
# [12] = Table 7, seed lot IN153, race F, 0.1 mg l^−1
# [13] = Table 6, seed lot IN146, race F, 0.001 mg l^−1
# [14] = Table 6, seed lot IN146, race F, 0.01 mg l^−1
# [15] = Table 6, seed lot IN146, race F, 0.1 mg l^−1
smiles,measurement,setting,value
CC1=CC(OC=C2C(=O)NC3c4c(C#N)cccc4CC23)OC1=O (mixture of isomers) [A12*],Germination % at concentration of 0.001 mg l^−1,[1],0 e %
same,Germination % at concentration of 0.01 mg l^−1,[2],4.2 e %
same,Germination % at concentration of 0.1 mg l^−1,[3],32 bcde %
CC1=CC(OC=C2C(=O)N(C(=O)OC(C)(C)C)C3c4ccccc4CC23)OC1=O (mixture of isomers) [A15*],Germination % at concentration of 0.001 mg l^−1,[4],0 e %
same,Germination % at concentration of 0.01 mg l^−1,[5],12.4 de %
same,Germination % at concentration of 0.1 mg l^−1,[6],25 d %
CC1=CC(OC=C2C(=O)N(c3ccc(C#N)cn3)C3c4ccccc4CC23)OC1=O (mixture of isomers) [A16*],Germination % at concentration of 0.001 mg l^−1,[7],7.8 fg %
same,Germination % at concentration of 0.01 mg l^−1,[8],60.6 cde %
same,Germination % at concentration of 0.1 mg l^−1,[9],88.2 abc %
CC1=CC(OC=C2C(=O)N(c3ccc(C(F)(F)F)cc3)C3c4ccccc4CC23)OC1=O (mixture of isomers) [A19*],Germination % at concentration of 0.001 mg l^−1,[7],71.5 abcde %
same,Germination % at concentration of 0.01 mg l^−1,[8],92.2 abc %
same,Germination % at concentration of 0.1 mg l^−1,[9],96.4 a %
CC(=O)OC1c2ccccc2C2C1C(=COC1C=C(C)C(=O)O1)C(=O)N2C(=O)OC(C)(C)C (mixture of isomers) [A24*],Germination % at concentration of 0.001 mg l^−1,[7],44.8 def %
same,Germination % at concentration of 0.01 mg l^−1,[8],86.4 abcd %
same,Germination % at concentration of 0.1 mg l^−1,[9],96.8 a %
CC1=CC(OC=C2C(=O)N(C(=O)OC(C)(C)C)C3c4ccccc4C(F)C23)OC1=O (mixture of isomers) [A25*],Germination % at concentration of 0.001 mg l^−1,[10],1.2 c %
same,Germination % at concentration of 0.01 mg l^−1,[11],14.3 c %
same,Germination % at concentration of 0.1 mg l^−1,[12],86.3 ab %
CC1=CC(OC=C2C(=O)N(CC#N)C3c4ccccc4CC23)OC1=O (mixture of isomers) [A28*],Germination % at concentration of 0.001 mg l^−1,[7],42.4 ef %
same,Germination % at concentration of 0.01 mg l^−1,[8],89.2 abc %
same,Germination % at concentration of 0.1 mg l^−1,[9],96.3 ab %
C=CCN1C(=O)C(=COC2C=C(C)C(=O)O2)C2Cc3ccccc3C21 (mixture of isomers) [A29*],Germination % at concentration of 0.001 mg l^−1,[7],90.3 abc %
same,Germination % at concentration of 0.01 mg l^−1,[8],94.5 abc %
same,Germination % at concentration of 0.1 mg l^−1,[9],94.0 abc %
"CC1=CC(O/C=C2/C(=O)NC3c4ccccc4C[C@H]23)OC1=O (stereo in doubt) [Compound P1, (3aR*,8bS*,5′R*)-3-[1-(4-Methyl-5-oxo-2,5-dihydro-furan-2-yloxy)-meth-(E)-ylidene]-3,3a,4,8b-tetrahydro-1H-indeno[1,2-b]pyrrol-2-one]",Germination (%),0.001 mg l^−1,70.5%
same,Germination (%),0.01 mg l^−1,83.7%
same,Germination (%),0.1 mg l^−1,83.1%
"CC1=CC(O/C=C2/C(=O)N(Cc3ccc(F)cc3)C3c4ccccc4CC23)OC1=O (stereo not drawn) [A27*, (3E)-1-[(4-fluorophenyl)methyl]-3-[(4-methyl-5-oxo-2H-furan-2-yl)oxymethylene]-4,8b-dihydro-3aH-indeno[1,2-b]pyrrol-2-one]",Germination % at concentration of 0.001 mg l^−1,[7],7.7 fg %
same,Germination % at concentration of 0.01 mg l^−1,[8],63.3 abcde %
same,Germination % at concentration of 0.1 mg l^−1,[9],80.1 abcde %
CC1=CC(OC=C2C(=O)NC3c4cccc(Br)c4CC23)OC1=O (stereo not drawn) [Compound A2],Germination % at concentration of 0.001 mg l^−1,[4],76.9 abc %
same,Germination % at concentration of 0.01 mg l^−1,[5],82 ab %
same,Germination % at concentration of 0.1 mg l^−1,[6],83.2 ab %
CC1=CC(OC=C2C(=O)NC3c4cc(C)ccc4CC23)OC1=O (stereo not drawn) [Compound A3],Germination % at concentration of 0.001 mg l^−1,[10],96.4 ab %
same,Germination % at concentration of 0.01 mg l^−1,[11],98.5 a %
same,Germination % at concentration of 0.1 mg l^−1,[12],98.0 a %
COc1ccc2c(c1)CC1C(=COC3C=C(C)C(=O)O3)C(=O)NC21 (stereo not drawn) [Compound A4],Germination % at concentration of 0.001 mg l^−1,[10],98.9 a %
same,Germination % at concentration of 0.01 mg l^−1,[11],95.8 ab %
same,Germination % at concentration of 0.1 mg l^−1,[12],99.0 a %
CC1=CC(OC=C2C(=O)NC3c4cccc(C)c4CC23)OC1=O (stereo not drawn) [Compound A5],Germination % at concentration of 0.001 mg l^−1,[1],74.5 abc %
same,Germination % at concentration of 0.01 mg l^−1,[2],90 a %
same,Germination % at concentration of 0.1 mg l^−1,[3],85.5 ab %
CC1=CC(OC=C2C(=O)NC3c4c(Br)cccc4CC23)OC1=O (stereo not drawn) [Compound A6],Germination % at concentration of 0.001 mg l^−1,[1],22.3 cde %
same,Germination % at concentration of 0.01 mg l^−1,[2],59.2 abcd %
same,Germination % at concentration of 0.1 mg l^−1,[3],27.8 bcde %
CC1=CC(OC=C2C(=O)NC3c4c(C)cccc4CC23)OC1=O (stereo not drawn) [Compound A8],Germination % at concentration of 0.001 mg l^−1,[13],72.9 bc %
same,Germination % at concentration of 0.01 mg l^−1,[14],84.4 abc %
same,Germination % at concentration of 0.1 mg l^−1,[15],69.9 bc %
CC1=CC(OC=C2C(=O)NC3c4ccc(F)cc4CC23)OC1=O (stereo not drawn) [Compound A9],Germination % at concentration of 0.001 mg l^−1,[13],90.2 ab %
same,Germination % at concentration of 0.01 mg l^−1,[14],85.2 abc %
same,Germination % at concentration of 0.1 mg l^−1,[15],71.5 bc %
CC1=CC(OC=C2C(=O)NC3c4ccc(Cl)cc4CC23)OC1=O (stereo not drawn) [Compound A10],Germination % at concentration of 0.001 mg l^−1,[1],81.3 abc %
same,Germination % at concentration of 0.01 mg l^−1,[2],84.0 ab %
same,Germination % at concentration of 0.1 mg l^−1,[3],85.1 ab %
CC1=CC(OC=C2C(=O)NC3c4cccc(C#N)c4CC23)OC1=O (stereo not drawn) [Compound A11],Germination % at concentration of 0.001 mg l^−1,[4],86.3 ab %
same,Germination % at concentration of 0.01 mg l^−1,[5],88.4 ab %
same,Germination % at concentration of 0.1 mg l^−1,[6],85.5 ab %
CCCc1cccc2c1C1NC(=O)C(=COC3C=C(C)C(=O)O3)C1C2 (stereo not drawn) [Compound A13],Germination % at concentration of 0.001 mg l^−1,[1],14.3 de %
same,Germination % at concentration of 0.01 mg l^−1,[2],64.5 abcd %
same,Germination % at concentration of 0.1 mg l^−1,[3],21.5 cde %
CCCc1cccc2c1CC1C(=COC3C=C(C)C(=O)O3)C(=O)NC21 (stereo not drawn) [Compound A14],Germination % at concentration of 0.001 mg l^−1,[4],85.3 ab %
same,Germination % at concentration of 0.01 mg l^−1,[5],91.5 a %
same,Germination % at concentration of 0.1 mg l^−1,[6],86.2 ab %
CC1=CC(OC=C2C(=O)N(c3ccccc3)C3c4ccccc4CC23)OC1=O (stereo not drawn) [Compound A17],Germination % at concentration of 0.001 mg l^−1,[10],99.2 a %
same,Germination % at concentration of 0.01 mg l^−1,[11],98.9 a %
same,Germination % at concentration of 0.1 mg l^−1,[12],99.4 a %
CC1=CC(OC=C2C(=O)N(c3ccc(Cl)cc3)C3c4ccccc4CC23)OC1=O (stereo not drawn) [Compound A18],Germination % at concentration of 0.001 mg l^−1,[10],89.8 ab %
same,Germination % at concentration of 0.01 mg l^−1,[11],99.1 a %
same,Germination % at concentration of 0.1 mg l^−1,[12],99.1 a %
COc1ccc(N2C(=O)C(=COC3C=C(C)C(=O)O3)C3Cc4ccccc4C32)cc1 (stereo not drawn) [Compound A20],Germination % at concentration of 0.001 mg l^−1,[10],2.0 c %
same,Germination % at concentration of 0.01 mg l^−1,[11],14.4 c %
same,Germination % at concentration of 0.1 mg l^−1,[12],89.3 ab %
CCOC(=O)N1C(=O)C(=COC2C=C(C)C(=O)O2)C2Cc3ccccc3C21 (stereo not drawn) [Compound A21],Germination % at concentration of 0.001 mg l^−1,[7],83.7 abcde %
same,Germination % at concentration of 0.01 mg l^−1,[8],93.4 abc %
same,Germination % at concentration of 0.1 mg l^−1,[9],96.7 a %
CC(=O)N1C(=O)C(=COC2C=C(C)C(=O)O2)C2Cc3ccccc3C21 (stereo not drawn) [Compound A22],Germination % at concentration of 0.001 mg l^−1,[7],87.6 abc %
same,Germination % at concentration of 0.01 mg l^−1,[8],95.3 ab %
same,Germination % at concentration of 0.1 mg l^−1,[9],95.7 ab %
